For one experiment, the system named is SK-OV-3. The experiment can be described thus: Cell cycle arrest in human SKOV3 cells assessed as accumulation at G1 phase at 15 umol/L after 24 hrs by propidium iodide staining-based assay (reference value: 58.1%). Type of experiment: functional.
The subject of another experiment is MDA-MB-231. The experiment can be described thus: Increase in MMP3 level in human MDA-MB-231 cells after 24 hrs by ELISA. Type of experiment: functional, cell-based. To be noted: MDA-MB-231, 24 h. A general note: An ELISA detects its analyte on a solid surface through an enzyme-linked reagent.
Experiment [1] relates to HT-1080. Put plainly: Decrease in UPA expression in human HT1080 cells. The class given is functional, cell-based.
Experiment [2] relates to HT-1080. The experiment can be described thus: Induction of DNA damage in human HT1080 cells assessed as formation of DNA breaks at 50 ug/ml by comet assay relative to control. Type of experiment: functional.
For a further experiment, the system named is ASPC1. The experiment can be described thus: Antitumor activity against human Aspc-1 cells xenografted in athymic nude mouse assessed as reduction in tumor volume at 5 mg/kg after 35 days relative to control. Type of experiment: functional. To be noted: ASPC1, 840 h. On the technique in general: Xenograft models place foreign cells or tissue in a host animal.

In a further experiment the test system is K562. The experiment can be described thus: Induction of apoptosis in human K562. The class given is functional, cell-based.
The target of another experiment is Tubulin. Put plainly: Inhibition of tubulin polymerization (unknown origin). Type of experiment: protein-complex assay, Homo sapiens.
The subject of a further experiment is NCI-H460. The experiment can be described thus: Cytotoxicity against human H460 cells after 48 hrs by MTT assay. To be noted: NCI-H460, 48 h. Type of experiment: functional, cell-based.
Experiment [3] concerns HT-144. Put plainly: Cytotoxicity against human HT144 cells after 48 hrs by MTT assay. Type of experiment: functional, cell-based. The note with it: HT-144, 48 h.
In another experiment the test system is MIA PaCa-2. Put plainly: Cytotoxicity against human MIAPaCa2 cells after 48 hrs by MTT assay. The class given is functional, cell-based. The note with it: MIA PaCa-2, 48 h. A general note: Formazan colour is commonly taken as a measure of viable cells.
Experiment [4] deals with HT-144. The experiment can be described thus: Cytotoxicity against human HT144 cells after 24 hrs by MTT assay. Type of experiment: functional, cell-based. To be noted: HT-144, 24 h.
Experiment [5] in a line: Inhibition of cell invasion in human […] cells at 4 nmol/L after 24 hrs by crystal violet staining based transwell assay relative to control. The class given is functional.
Experiment [6] can be described thus: Cytotoxicity against human WRO cells at 10 uM after 72 hrs by MTS assay relative to control. Type of experiment: functional.
The nature of experiment [7]: Cytotoxicity against human WRO cells at 5 umol/L after 72 hrs by MTS assay relative to control. The class given is functional.
A further experiment has as its system MCF7R. Put plainly: Cytotoxicity against human MCF7/R cells at 5 umol/L after 72 hrs by MTS assay relative to control. Type of experiment: functional.
Experiment [8] is described as follows: Cytotoxicity against human WRO cells after 72 hrs in presence of curcumin by MTS assay relative to control. Type of experiment: functional.
The nature of experiment [9]: Cytotoxicity against human HPL1D cells. Type of experiment: functional, cell-based.
In a further experiment the test system is WiDr. Put plainly: Cytotoxicity against human WiDr cells after 4 hrs by MTT assay. Type of experiment: functional, cell-based.
The subject of another experiment is CCD-841CoN. Put plainly: Cytotoxicity against human CRL1790 cells. Type of experiment: functional, cell-based.
Another experiment has as its system EL4. Put plainly: Induction of apoptosis in mouse EL4 cells at 50 umol/L after 72 hrs relative to control. Type of experiment: functional.
The test system of the next experiment is Colon 26. The experiment can be described thus: Cytotoxicity against mouse Colon 26 cells after 4 hrs by MTT assay. To be noted: Colon 26, 4 h. Type of experiment: functional, cell-based.
Experiment [10] concerns HT-29. The experiment can be described thus: Cytotoxicity against human HT-29 cells after 4 hrs by MTT assay. The class given is functional, cell-based. To be noted: HT-29, 4 h.
Another experiment deals with HeLa. Put plainly: Cytotoxicity against human HeLa cells. Type of experiment: functional, cell-based.
Another experiment relates to DLD-1. Put plainly: Cytotoxicity against human DLD1 cells. The class given is functional, cell-based.
Experiment [11] has as its system MCF7. Put plainly: Cytotoxicity against human MCF7 cells. The class given is functional, cell-based.
Experiment [12] in a line: Cytotoxicity against human SW116 cells after 4 hrs by MTT assay. The class given is functional, cell-based. The note with it: SW116, 4 h.
For a further experiment, the system named is KM12. The experiment can be described thus: Cytotoxicity against human KM12 cells after 4 hrs by MTT assay. The note with it: KM12, 4 h. Type of experiment: functional, cell-based.
In another experiment the test system is BT-474. Put plainly: Cytotoxicity against human BT474 cells. Type of experiment: functional, cell-based.
In the next experiment the test system is SW480. The experiment can be described thus: Cytotoxicity against human SW480 cells after 4 hrs by MTT assay. The class given is functional, cell-based. To be noted: SW480, 4 h.
The test system of experiment [13] is HT-29. Put plainly: Cytotoxicity against human HT-29 cells. The class given is functional, cell-based.
In the next experiment the test system is Hep 3B2. The experiment can be described thus: Cytotoxicity against human Hep3B cells. The class given is functional, cell-based.
A further experiment has as its system HaCaT. Put plainly: Cytotoxicity against human HaCaT cells. Type of experiment: functional, cell-based.
The subject of another experiment is T47D. Put plainly: Cytotoxicity against human T47D cells. The class given is functional, cell-based.
Experiment [14] in a line: Cytotoxicity against […] cells by MTT assay. The class given is functional, cell-based.
Experiment [15] concerns MCF7. The experiment can be described thus: Anti-invasive activity against human MCF7 cells at 100 umol/L after 12 hrs by giemsa staining based light microscopic analysis relative to control. Type of experiment: functional.
The next experiment has as its system TT. The experiment can be described thus: Cytotoxicity against human TT cells by trypan blue dye-based assay. The class given is functional, cell-based.
The target of experiment [16] is Fibroblast growth factor receptor 2 (Homo sapiens) (UniProt P21802). Put plainly: Inhibition of FGFR2 (unknown origin) relative to control. To be noted: concentration not given here.
Chain of Fibroblast growth factor receptor 2 (Homo sapiens) (P21802 22-821 limits assumed): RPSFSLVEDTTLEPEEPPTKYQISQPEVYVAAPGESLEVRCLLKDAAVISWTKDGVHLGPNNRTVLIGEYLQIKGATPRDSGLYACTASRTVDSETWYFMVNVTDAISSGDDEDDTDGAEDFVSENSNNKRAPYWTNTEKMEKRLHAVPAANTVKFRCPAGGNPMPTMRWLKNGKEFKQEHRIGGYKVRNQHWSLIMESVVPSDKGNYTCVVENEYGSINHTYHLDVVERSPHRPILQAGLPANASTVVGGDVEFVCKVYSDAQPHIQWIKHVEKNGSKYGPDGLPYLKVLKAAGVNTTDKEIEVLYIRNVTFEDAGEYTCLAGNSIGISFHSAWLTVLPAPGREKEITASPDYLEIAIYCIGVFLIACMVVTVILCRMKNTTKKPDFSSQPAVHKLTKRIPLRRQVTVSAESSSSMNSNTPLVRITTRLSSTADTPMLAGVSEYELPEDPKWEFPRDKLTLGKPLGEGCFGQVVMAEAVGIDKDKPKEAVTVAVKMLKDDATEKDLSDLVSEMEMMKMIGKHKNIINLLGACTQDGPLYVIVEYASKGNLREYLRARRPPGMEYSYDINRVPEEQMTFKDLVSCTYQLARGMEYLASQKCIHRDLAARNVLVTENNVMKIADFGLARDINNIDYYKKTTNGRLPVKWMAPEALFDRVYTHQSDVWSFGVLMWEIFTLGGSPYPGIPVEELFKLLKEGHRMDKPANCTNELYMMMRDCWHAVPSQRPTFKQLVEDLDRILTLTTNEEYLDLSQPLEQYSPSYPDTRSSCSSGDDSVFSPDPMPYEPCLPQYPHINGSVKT
Experiment [17] addresses Fibroblast growth factor receptor 1 (Homo sapiens) (UniProt P11362). Put plainly: Inhibition of FGFR1 (unknown origin) relative to control. To be noted: concentration not given here.
Experiment [18] concerns DU-145. Put plainly: Potentiation of PTX-induced anticancer activity in human DU145 cells assessed as reduction in PTX IC50 (reference value: 13.5 nmol/L). Type of experiment: functional, cell-based.
Experiment [19] deals with DU-145. The experiment can be described thus: Cytotoxicity against human DU145 cells. Type of experiment: functional, cell-based.
Another experiment has as its system PC-3. Put plainly: Cytotoxicity against human PC3 cells. Type of experiment: functional, cell-based.

The results in this text go back to ChEMBL document CHEMBL4304785, “Recent advances of analogues of curcumin for treatment of cancer” (Eur J Med Chem, 2019).

As a reminder, the IC50 is the concentration that inhibits the measured activity by half. A word on the inhibition in vivo: it is the change of the read-out against control, counted positive when it falls. The inhibition is how much of the control response was suppressed.

Chain of Fibroblast growth factor receptor 1 (Homo sapiens) (P11362 22-822 limits assumed): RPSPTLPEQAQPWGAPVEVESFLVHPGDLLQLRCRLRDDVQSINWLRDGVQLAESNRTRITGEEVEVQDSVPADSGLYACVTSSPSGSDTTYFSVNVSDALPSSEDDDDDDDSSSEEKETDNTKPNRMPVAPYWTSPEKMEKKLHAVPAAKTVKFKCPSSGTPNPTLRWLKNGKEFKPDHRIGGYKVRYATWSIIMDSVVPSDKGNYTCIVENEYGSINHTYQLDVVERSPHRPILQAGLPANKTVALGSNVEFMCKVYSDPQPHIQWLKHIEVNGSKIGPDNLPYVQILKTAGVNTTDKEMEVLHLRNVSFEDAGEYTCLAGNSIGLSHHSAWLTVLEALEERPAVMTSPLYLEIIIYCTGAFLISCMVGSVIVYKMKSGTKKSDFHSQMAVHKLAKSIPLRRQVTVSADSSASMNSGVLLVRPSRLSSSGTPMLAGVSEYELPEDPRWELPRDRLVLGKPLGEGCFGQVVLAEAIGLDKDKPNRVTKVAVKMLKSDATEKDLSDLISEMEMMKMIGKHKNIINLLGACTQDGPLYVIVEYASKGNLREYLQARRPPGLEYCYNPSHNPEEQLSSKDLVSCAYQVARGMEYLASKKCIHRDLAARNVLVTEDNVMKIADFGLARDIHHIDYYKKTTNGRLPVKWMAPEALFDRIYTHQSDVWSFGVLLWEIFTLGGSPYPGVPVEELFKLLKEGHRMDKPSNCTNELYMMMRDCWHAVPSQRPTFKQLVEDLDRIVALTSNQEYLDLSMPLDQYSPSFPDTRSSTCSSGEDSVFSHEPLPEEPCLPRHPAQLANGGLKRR

For the compound `O=C(/C=C/c1ccc(O)cc1)CC(=O)/C=C/c1ccc(O)cc1` [BISDEMETHOXYCURCUMIN], the Activity in the experiment on SK-OV-3 worked out at 79.7%. Moreover, the figures for the IC50 in the experiment on MDA-MB-231 and in the experiment on HT-1080 [1] were 11 µM and 7 µM, respectively.

Turning to `O=C(O)/C=C/c1ccc(O)c(O)c1` [CAFFEIC ACID], in the experiment on HT-1080 [2], the Activity is recorded as 85%.

`COc1cc(CNC(=O)CCCC/C=C/C(C)C)ccc1O` [CAPSAICIN]: the inhibition in vivo at 5 mg/kg in the experiment on ASPC1 is 73%.

As for `O=C(/C=C/c1ccccc1)c1ccccc1` [CHALCONE], the IC50 with K562 amounted to 4.3 µM; against Tubulin, 620 µM.

In the case of `O=C(O)/C=C/c1ccccc1` [CINNAMIC ACID], the IC50 amounted to 2.1 µM in the experiment on NCI-H460, 1.07 µM with HT-144 [3], 1.33 µM in the experiment with MIA PaCa-2 and 2.4 µM in the experiment on HT-144 [4]. The same compound yielded an inhibition at 0.004 µM in [5] of 60%.

Turning to `COc1cc(/C=C/c2cc(/C=C/c3ccc(O)c(OC)c3)[nH]n2)ccc1O` [CURCUMIN PYRAZOLE], in [6], the inhibition at 10 µM is 48.2%. Also, the results for the inhibition at 5 µM (in experiment [7]; in the experiment on MCF7R) were 48.9% and 52.8%, respectively. In experiment [8], the “inhibition (INH)” value is 41%.

With `COc1cc(/C=C/C(=O)CC(=O)/C=C/c2ccc(O)c(OC)c2)ccc1O` [CURCUMIN], the IC50 worked out at 16 µM in [9]; 26.8 µM in the experiment with WiDr; 105 µM in the experiment on CCD-841CoN; 30.3 µM with Colon 26; 20.7 µM in the experiment with HT-29 [10]; 8.2 µM in the experiment on HeLa. For the same compound, the IC50 with DLD-1 came to 146 µM; with MCF7 [11], 19.9 µM; in experiment [12], 27.5 µM; in the experiment on KM12 it was 16 µM; with HT-1080 [1], 10 µM; in the experiment on BT-474, 11 µM. Also, the IC50 in the experiment with SW480 was 17.9 µM; in the experiment with HT-29 [13] it was 132 µM; in the experiment on Hep 3B2, 10 µM; in the experiment with HaCaT, 13 µM; in the experiment with T47D it was 11 µM; in experiment [14], 8.5 µM. The same compound came in with an Activity with EL4 of 95%.

Consider `O=C(CC(=O)c1ccccc1)c1ccccc1` [DIBENZOYLMETHANE], for which the Activity with MCF7 [15] was determined as 84%.

Consider `COc1cc(/C=C/C(=O)O)ccc1O` [FERULATE], for which the IC50 in the experiment with TT was 150 µM. Moreover, the inhibition worked out at 64% in [16] and 92% in experiment [17].

Take `C/C1=C\CC(C)(C)/C=C/C(=O)/C(C)=C/CC1` [ZERUMBONE]: the IC50 with DU-145 [18] stood at 0.0055 µM; in the experiment on DU-145 [19], 6.9 µM; in the experiment on PC-3 it was 9.1 µM.
